Assay results taken from ChEMBL document CHEMBL6078692, “Discovery of PF-07265028, A Selective Small Molecule Inhibitor of Hematopoietic Progenitor Kinase 1 (HPK1) for the Treatment of Cancer” (J Med Chem, 2024).
In brackets after ≈: the same amount, converted by molar mass.

What was measured:
[1] = Lipophilicity, logD of compound in octanol/water by shake flask method; format: physicochemical
[2] = species on record: Homo sapiens; assay: Selectivity ratio of Ki for N-terminal 6xHis-tagged human recombinant full-length LCK to Ki for full-length recombinant human HPK1 (1 to 182 residues) expressed in baculovirus infected Sf21 cells
[3] = target: Mitogen-activated protein kinase kinase kinase kinase 1 (Homo sapiens, UniProt Q92918); assay: Inhibition of full-length recombinant human HPK1 (1 to 182 residues) extracted from baculovirus infected Sf21 cells using phospho-acceptor peptide as substrate incubated for 15 mins in presence of ATP by fluorescence based assay
[4] = Induction of IL-2 production in human T cells pretreated for 30 mins followed by anti-CD3/CD28 stimulation for 24 hrs by MSD analysis; format: functional, cell-based; conditions: T-cell
[5] = Cytotoxicity against PBMC (unknown origin) assessed as inhibition of ATP level incubated for 3 days by Cell Titer Glo assay; format: toxicity, cell-based
[6] = Permeability in RRCK cells; format: ADME, cell-based, Canis lupus familiaris, MDCKII-LE; conditions: dog, MDCK; read-out: permeability
[7] = Selectivity ratio of IC50 for cytotoxicity against PBMC (unknown origin) assessed as inhibition of ATP level incubated for 3 days by Cell Titer Glo assay to IC50 for inhibition of SLP76 phosphorylation at Ser376 in human Jurkat cells incubated for 30 mins by HTRF assay; format: toxicity, cell-based; conditions: read-out: Ratio IC50
[8] = Intrinsic clearance in human hepatocytes measured per million cells at 1 uM measured for 240 mins by LC-MS/MS analysis; format: ADME, cell-based, Hepatocyte; conditions: read-out: CLH
[9] = Kinetic solubility of compound at pH 7.4 incubated for 24 hrs by MS/MS analysis; format: physicochemical; conditions: buffer, read-out: Kinetic_solubility
[10] = Stability in human plasma assessed as half life measured for 120 mins by LC-MS/MS analysis; format: ADME, cell-free
[11] = Oral bioavailability in mouse at 15 mg/kg, po; format: ADME, organism-based; conditions: in vivo
[12] = Tmax in mouse at 15 mg/kg, po or 1 mg/kg, iv; format: ADME, organism-based; conditions: in vivo
[13] = Oral bioavailability in monkey at 1 mg/kg, po; format: ADME, organism-based, Macaca mulatta; conditions: rhesus monkey, in vivo
[14] = Unbound clearance in monkey at 1 mg/kg, po or 0.5 mg/kg, iv; format: ADME, organism-based, Macaca mulatta; conditions: rhesus monkey, in vivo
[15] = Terminal half life in mouse at 15 mg/kg, po or 1 mg/kg, iv; format: ADME, organism-based; conditions: in vivo, read-out: beta t1/2 (converted)
[16] = Volume of distribution at steady state in monkey at 1 mg/kg, po or 0.5 mg/kg, iv; format: ADME, organism-based, Macaca mulatta; conditions: rhesus monkey, in vivo
[17] = Volume of distribution at steady state in mouse at 15 mg/kg, po or 1 mg/kg, iv; format: ADME, organism-based; conditions: in vivo
[18] = Unbound clearance in mouse at 15 mg/kg, po or 1 mg/kg, iv; format: ADME, organism-based; conditions: in vivo
[19] = Clearance in monkey at 1 mg/kg, po or 0.5 mg/kg, iv; format: ADME, organism-based, Macaca mulatta; conditions: rhesus monkey, in vivo
[20] = Tmax in monkey at 1 mg/kg, po or 0.5 mg/kg, iv; format: ADME, organism-based, Macaca mulatta; conditions: rhesus monkey, in vivo
[21] = Clearance in mouse at 15 mg/kg, po or 1 mg/kg, iv; format: ADME, organism-based; conditions: in vivo
[22] = Terminal half life in monkey at 1 mg/kg, po or 0.5 mg/kg, iv; format: ADME, organism-based, Macaca mulatta; conditions: rhesus monkey, in vivo, read-out: beta t1/2 (converted)

Chain of Mitogen-activated protein kinase kinase kinase kinase 1 (Q92918 whole entry, the tested form may be a part): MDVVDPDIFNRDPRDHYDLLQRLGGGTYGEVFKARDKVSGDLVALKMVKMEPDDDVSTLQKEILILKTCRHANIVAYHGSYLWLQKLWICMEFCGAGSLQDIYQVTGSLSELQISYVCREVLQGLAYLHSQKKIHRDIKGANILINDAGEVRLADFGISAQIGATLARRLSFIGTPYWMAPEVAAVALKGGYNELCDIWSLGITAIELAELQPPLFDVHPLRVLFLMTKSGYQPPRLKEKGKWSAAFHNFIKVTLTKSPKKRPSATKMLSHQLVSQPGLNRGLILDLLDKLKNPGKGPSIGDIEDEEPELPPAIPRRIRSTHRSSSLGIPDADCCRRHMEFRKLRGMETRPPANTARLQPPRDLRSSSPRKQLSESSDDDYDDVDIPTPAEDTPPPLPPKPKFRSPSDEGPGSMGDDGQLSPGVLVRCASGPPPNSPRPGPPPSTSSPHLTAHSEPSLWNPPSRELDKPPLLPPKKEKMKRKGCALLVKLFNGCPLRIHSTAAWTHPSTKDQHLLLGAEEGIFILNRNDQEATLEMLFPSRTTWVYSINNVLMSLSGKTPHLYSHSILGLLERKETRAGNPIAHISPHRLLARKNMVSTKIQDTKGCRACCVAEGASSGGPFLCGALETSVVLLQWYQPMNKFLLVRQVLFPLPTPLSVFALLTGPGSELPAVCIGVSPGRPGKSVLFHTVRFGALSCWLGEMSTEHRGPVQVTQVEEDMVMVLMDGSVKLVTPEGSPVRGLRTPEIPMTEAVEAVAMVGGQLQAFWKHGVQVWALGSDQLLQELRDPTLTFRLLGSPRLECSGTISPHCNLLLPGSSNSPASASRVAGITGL

Row | Compound | logD [1] | IC50 [3] | EC50 [4] | Papp [6] | hepatocyte CLint at 1 µM [8] | Ratio Ki [2] | IC50 at 3 days [5] | selectivity ratio at 3 days [7] | also measured
1 | CCCn1cnnc1-c1cccc(N2Cc3c(cc(N(C)C(C)C)nc3CNC)C2=O)n1 | 2 | < 0.13 nM | 74 nM | 19.3 ×10⁻⁶ cm/s | 15 µL/min/1e6 cells |  | 2100 nM | 24 | 
2 | CCCn1cnnc1-c1cccc(N2Cc3c(cc(N4CCC[C@H]4C)nc3CNC)C2=O)n1 | 2.1 | < 0.06 nM | 38 nM | 15.1 ×10⁻⁶ cm/s | 23 µL/min/1e6 cells |  | 1100 nM | 32 | 
3 | C[C@@H]1CCCN1c1cc2c(c([C@@H](C)N)n1)CN(c1cccc(-c3nnc4n3[C@@H](C)CC4)n1)C2=O | 2.3 | < 0.05 nM | 62 nM |  |  |  | 1100 nM | 21 | 
4 | CC[C@H]1CCc2nnc(-c3cccc(N4Cc5c(cc(N(C)C(C)C)nc5CNC)C4=O)n3)n21 | 2.2 | < 0.06 nM | 116 nM |  |  |  | 500 nM | 13 | 
5 | CCCn1c(C)nnc1-c1cccc(N2Cc3c(cc(N(C)C(C)C)nc3CNC)C2=O)n1 | 2 | < 0.17 nM | 154 nM |  |  |  | > 3300 nM | > 41 | 
6 | CNCc1nc(N(C)C(C)C)cc2c1CN(c1cccc(-c3nnc4n3[C@@H](C)CC4)n1)C2=O | 1.9 | < 0.05 nM | 47 nM |  |  |  | 500 nM | 11 | 
7 | CNCc1nc(N(C)C(C)C)cc2c1CN(c1cccc(-c3nnc4n3[C@@H](CF)CC4)n1)C2=O | 1.6 | 0.07 nM | 64 nM |  |  |  | 1300 nM | 25 | 
8 | CCC(C)n1cnnc1-c1cccc(NC(=O)c2cccc3c2OCC(N)C3)n1 (stereo not drawn) | 1.7 | 2.2 nM |  |  |  | > 230 |  |  | half-life [10]: 3.38 h
9 | CCCn1cnnc1-c1cccc(N2Cc3c(cc(N(C)C)nc3CNC)C2=O)n1 | 1 | 0.27 nM | 97 nM | 17.7 ×10⁻⁶ cm/s | 5.2 µL/min/1e6 cells |  | 3500 nM | 29 | 
10 | CC[C@@H](N)c1nc(N2CCC[C@H]2C)cc2c1CN(c1cccc(-c3nnc4n3[C@@H](C)CC4)n1)C2=O | 2.5 |  | 59 nM | 8.3 ×10⁻⁶ cm/s | 56 µL/min/1e6 cells |  | 800 nM |  | bioavailability [11]: 38%; solubility kinetic at 24 h [9]: 260 µM (≈ 123 µg/mL); Tmax [12]: 2 h; bioavailability [13]: 20%; CL free [14]: 143 mL/min/kg; half-life [15]: 3.3 h; Vdss [16]: 3.7 L/kg; Vdss [17]: 4.9 L/kg; CL free [18]: 690 mL/min/kg; clearance [19]: 14 mL/min/kg; Tmax [20]: 1 h; clearance [21]: 39 mL/min/kg; half-life [22]: 4.3 h
11 | CC[C@@H](N)c1nc(N2CCC[C@H]2C)cc2c1CN(c1cccc(-c3nncn3CC)n1)C2=O | 2.3 | < 0.09 nM | 142 nM |  |  |  | 2200 nM | 42 | 
12 | CC[C@H](C)n1cnnc1-c1cccc(NC(=O)c2cccc3c2nc(CN)n3C)n1 | 2 | 2.7 nM |  |  |  | 37 |  |  | half-life [10]: 2.1 h

Further lines, with some results ahead:

Row | logD [1] | IC50 [3] | EC50 [4] | Papp [6] | hepatocyte CLint at 1 µM [8] | Compound | Ratio Ki [2] | IC50 at 3 days [5] | selectivity ratio at 3 days [7] | also measured
13 | 0.8 | 0.15 nM |  |  |  | CNCc1nc(N(C)C)cc2c1CN(c1cccc(-c3nncn3C(C)C)n1)C2=O | 1600 |  |  | 
14 | 0.7 | 2.5 nM |  | 2.9 ×10⁻⁶ cm/s | < 2.3 µL/min/1e6 cells | COc1ccc2c(c1CN)CN(c1cccc(-c3nncn3[C@@H](C)CC(F)(F)F)n1)C2=O | > 140 |  |  | solubility kinetic at 24 h [9]: 372 µM (≈ 166 µg/mL)
15 | 1.1 | 1.1 nM |  | 27 ×10⁻⁶ cm/s | 10 µL/min/1e6 cells | CNCc1cc(OC)cc2c1CN(c1cccc(-c3nncn3C(C)C)n1)C2=O | > 470 | 1700 nM | 5 | solubility kinetic at 24 h [9]: 495 µM (≈ 194 µg/mL)
16 | 1.2 | 7.7 nM |  |  |  | CC(C)n1cnnc1-c1cccc(NC(=O)c2cccc3c2OCC(N)C3)n1 (stereo not drawn) | > 65 |  |  | 
17 | 1.3 | < 0.05 nM |  |  |  | CNCc1nc(N(C)C)cc2c1CN(c1cccc(-c3nncn3[C@@H](C)CC(F)(F)F)n1)C2=O | > 260 |  |  | 
18 | 1.7 | 10 nM |  |  |  | CC(C)n1cnnc1-c1cccc(NC(=O)c2cccc3c2nc(CN)n3C)n1 | > 45 |  |  | 
19 | 2.3 | 14 nM |  |  |  | COc1ccc(CC#N)cc1C(=O)Nc1cccc(-c2nncn2C(C)C)n1 | 6 |  |  | 
20 | 1.6 | 0.3 nM |  | 20.4 ×10⁻⁶ cm/s | 11 µL/min/1e6 cells | CNCc1cc(OC)cc2c1CN(c1cccc(-c3nncn3[C@@H](C)CC(F)(F)F)n1)C2=O | 210 | 487 nM | 4 | solubility kinetic at 24 h [9]: 202 µM (≈ 93 µg/mL)
21 | 2.1 | 22 nM |  |  |  | CC(C)n1cnnc1-c1cccc(N2Cc3c(CO)cccc3C2=O)n1 | > 13 |  |  | solubility kinetic at 24 h [9]: < 0.1 µM
22 | 0.7 | 194 nM |  |  |  | CC(C)n1cnnc1-c1cccc(N2Cc3c(CN)cccc3C2=O)n1 | > 3 |  |  | solubility kinetic at 24 h [9]: > 600 µM; half-life [10]: > 6 h
